Source: US11155539B2, “4-pyridinylmethyl-morpholine derivatives and the use thereof as medicament” (Boehringer Ingelheim International GmbH, priority 2018, dated 2021)

How the values were obtained:
MDR1 (P-gp) = target: T1, MDR1 (P-gp) (Homo sapiens, UniProt P08183); assay: MDCK assay P-gp (permeability across MDCK-MDR1 monolayers); format: in vitro ADME; conditions: for Papp A→B at 2 h: apical-to-basal, MDCK-MDR1 monolayers, pH 7.4; for efflux ratio at 2 h: pH 7.4, Papp (b-a) divided by Papp (a-b), MDCK-MDR1, read-out: efflux ratio PEBA/PEAB
T1 construct: expressed in transfected cells; host or cells: MDCKII (Madin-Darby canine kidney)
T1 sequence (P08183 whole entry): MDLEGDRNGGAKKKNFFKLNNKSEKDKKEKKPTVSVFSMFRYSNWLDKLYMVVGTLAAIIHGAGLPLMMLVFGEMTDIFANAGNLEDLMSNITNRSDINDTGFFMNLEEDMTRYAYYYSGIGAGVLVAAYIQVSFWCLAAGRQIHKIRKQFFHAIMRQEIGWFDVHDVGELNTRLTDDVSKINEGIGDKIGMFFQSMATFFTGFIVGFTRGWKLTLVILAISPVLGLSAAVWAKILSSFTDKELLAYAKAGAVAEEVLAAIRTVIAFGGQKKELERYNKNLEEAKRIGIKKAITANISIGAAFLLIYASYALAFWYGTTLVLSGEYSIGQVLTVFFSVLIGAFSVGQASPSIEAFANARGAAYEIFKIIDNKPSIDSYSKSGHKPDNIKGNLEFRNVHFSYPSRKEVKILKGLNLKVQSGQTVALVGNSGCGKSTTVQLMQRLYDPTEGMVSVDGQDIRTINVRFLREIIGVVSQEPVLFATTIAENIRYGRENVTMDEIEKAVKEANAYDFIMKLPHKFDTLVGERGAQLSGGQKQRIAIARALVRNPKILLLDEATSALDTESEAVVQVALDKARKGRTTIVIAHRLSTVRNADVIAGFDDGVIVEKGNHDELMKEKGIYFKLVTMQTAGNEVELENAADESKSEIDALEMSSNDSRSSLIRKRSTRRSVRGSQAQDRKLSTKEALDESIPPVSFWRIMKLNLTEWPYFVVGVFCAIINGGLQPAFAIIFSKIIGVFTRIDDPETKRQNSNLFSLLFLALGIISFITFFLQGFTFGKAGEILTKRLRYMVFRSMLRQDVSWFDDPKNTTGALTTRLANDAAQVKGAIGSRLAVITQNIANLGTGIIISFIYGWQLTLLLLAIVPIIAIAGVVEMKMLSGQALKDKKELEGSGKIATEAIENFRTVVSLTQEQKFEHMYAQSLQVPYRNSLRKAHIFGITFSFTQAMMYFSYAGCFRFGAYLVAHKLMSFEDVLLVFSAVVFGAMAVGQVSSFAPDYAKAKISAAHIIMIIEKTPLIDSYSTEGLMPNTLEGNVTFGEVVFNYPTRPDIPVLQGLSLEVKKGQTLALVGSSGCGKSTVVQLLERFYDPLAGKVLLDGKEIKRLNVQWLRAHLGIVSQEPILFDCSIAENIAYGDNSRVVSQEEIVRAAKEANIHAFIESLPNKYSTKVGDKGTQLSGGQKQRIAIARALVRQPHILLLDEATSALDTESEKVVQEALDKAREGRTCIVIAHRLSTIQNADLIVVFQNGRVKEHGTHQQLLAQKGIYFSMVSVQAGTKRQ
Protocol: The MDCK assays provide information on the potential of a compound to pass the blood brain barrier. Permeability measurements across polarized, confluent MDCK-MDR1 cell monolayers grown on permeable filter supports are used as an in vitro absorption model: apparent permeability coefficients (PE) of the compounds across the MDCK-MDR1 cell monolayers are measured (pH 7.4, 37° C.) in apical-to-basal (AB) and basal-to-apical (BA) transport direction. The AB permeability (PEAB) represents drug absorption from the blood into the brain and the BA permeability (PEBA) drug efflux from the brain back into the blood via both, passive permeability as well as active transport mechanisms mediated by efflux and uptake transporters that are expressed on the MDCK-MDR1 cells, predominantly by the overexpressed human MDR1. Identical or similar permeabilities in both transport directions indicate passive permeation (PEBA/PEAB≤1), vectorial permeability points to additional active transport mechanisms. Higher PEBA than PEAB (PEBA/PEAB>5) indicates the involvement of active efflux mediated by MDR1, which might compromise the goal to achieve sufficient brain exposure. Therefore, this assay provides valuable support for selection of compounds applicable for further in vivo testing. High permeability not limited by efflux at the blood brain barrier is a favorable characteristic for compounds that are to be used for drugs acting primarily in the CNS.
Apparent permeability coefficients (Papp) of the compounds across the MDCK-MDR1 monolayers (MDCKII cells transfected with human MDR1 cDNA expression plasmid) are measured in apical-to-basal (AB) and basal-to-apical (BA) direction. MDCK-MDR1 cells (6×10^5 cells/cm^2) are seeded on filter inserts (Corning, Transwell, polycarbonate, 0.4 μm pore size) and cultured for 9 to 10 days. Compounds dissolved in DMSO stock solution (1-20 mM) are diluted with HTP-4 aqueous buffer (128.13 mM NaCl, 5.36 mM KCl, 1 mM MgSO4, 1.8 mM CaCl2, 4.17 mM NaHCO3, 1.19 mM Na2HPO4, 0.41 mM NaH2PO4, 15 mM HEPES, 20 mM glucose, pH 7.4) supplemented with 0.25% BSA to prepare the transport solutions (final concentration: 1 or 10 μM, final DMSO<=0.5%). The transport solution is applied to the apical or basolateral donor side for measuring A-B or B-A permeability, respectively. The receiver side contains HTP-4 buffer supplemented with 0.25% BSA. Samples are collected at the start and end of experiment from the donor and at various time intervals for up to 2 hours also from the receiver side for concentration measurement by HPLC-MS/MS (RapidFire High-throughput MS System (Agilent) coupled to QTrap 6500 (AB Sciex) or TSQ Vantage (Thermo Scientific)). Sampled receiver volumes are replaced with fresh receiver solution. Efflux ratio is calculated dividing the Papp (b-a) values by the Papp (a-b) values.

[1] = Metabolic stability in pooled human liver microsomes; format: in vitro ADME; conditions: pH 7.6, 1 μM compound, 37° C., NADPH, read-out: Half-life - t½ human liver microsomes
Excerpt: Stability in human liver microsomes refers to the susceptibility of compounds to biotransformation in the context of selecting and/or designing drugs with favorable pharmacokinetic properties. The primary site of metabolism for many drugs is the liver. Human liver microsomes contain the cytochrome P450s (CYPs), and thus represent a model system for studying drug metabolism in vitro Enhanced stability in human liver microsomes is associated with several advantages, including increased bioavailability and adequate half-life, which can enable lower and less frequent dosing of patients. Thus, enhanced stability in human liver microsomes is a favorable characteristic for compounds that are to be used for drugs.
The metabolic degradation of the test compound was assayed at 37° C. with pooled human liver microsomes. The final incubation volume of 60 μl per time point contains TRIS buffer pH 7.6 at room temperature (0.1 M), magnesium chloride (5 mM aqueous solution), microsomal protein (1 mg/mL for human) and the test compound at a final concentration of 1 μM. Following a short preincubation period at 37° C., the reactions were initiated by addition of betanicotinamide adenine dinucleotide phosphate, reduced form (NADPH, 1 mM), and terminated by transferring an aliquot into acetonitril after different time points. After centrifugation (10000 g, 5 min), an aliquot of the supernatant was assayed by HPLC-MS/MS as described above for the MDCK assay P-gp for the amount of parent compound. The half-life was determined by the slope of the semi-logarithmic plot of the concentration-time profile.

| Papp A→B at 2 h (MDR1 (P-gp)) [×10⁻⁶ cm/s] | efflux ratio at 2 h (MDR1 (P-gp)) | half-life at 1 μM [1] [h] | SMILES |
| --- | --- | --- | --- |
| 67 | 0.6 | > 2.17 | CNC(=O)[C@@H]1CN(Cc2ccc(Oc3ccccc3Cl)nc2)CCO1 [Example 17] |
| 75 | 0.7 | > 2.17 | CNC(=O)[C@@H]1CN(Cc2ccc(Oc3ccccc3F)nc2)CCO1 [Example 19] |
| 58 | 0.8 | > 2.17 | CNC(=O)[C@@H]1CN(Cc2ccc(Oc3ccc(C)cc3)nc2)CCO1 [Example 29] |
| 86 | 0.5 | > 2.17 | CNC(=O)[C@@H]1CN(Cc2ccc(Oc3ccc(F)cc3)cn2)CCO1 [Example 30] |
